Columns and labels:
[1] = tested on: BRCA1/2-deficient cell lines; experiment: Growth of BRCA1/2-deficient cell lines (summary over tested lines); format: cell-based, Human
Protocol: (§1) BxPC3 cells were kept in RPMI 1640 (ATCC) media supplemented with 10% FBS (Gibco). Capan-1/BxPC3 Capan-1 cells were kept in IMDM (ATCC) media containing 20% FBS (GIBCO). […] cells were kept in 48.5% RPMI1640 (ATCC), 48.5% MEGM (Clonetics/Lonza, MEGM kit, CC-3150) and 3% FBS (GIBCO) respectively. Cells in log-phase were harvested and 100 μl cell suspensions were replated in a 96-well plate with a final density of 4000 cells/well. After overnight growth, cells were treated with indicated concentrations of compounds. Media containing the invariant concentration of compounds were refreshed every 3 days until cells were finally lysed by 30 μl/well of Promega CellTiter-Glo reagents and read on a Promega GloMax 96 reader on day 10 (9 days exposure).
as §1, with “(Gibco);” for “(Gibco). Capan-1/BxPC3”, “(GIBCO);” for “(GIBCO).”, “exposure). Promega CellTiter-Glo protocol is available on the web: www dot promega dot com/resources/protocols/technical-bulletins/0/celltiter-glo-luminescent-cell-viability-assay-protocol/” for “exposure).”
MDA-MB-436 cells were cultured in RPMI+10% FBS. BRCA-proficient and BRCA-deficient cells were plated on day 0 in triplicate at 5,000 cells/well. […] Cells were counted on day 4 on a hemocytometer, using Trypan Blue exclusion, and immediately were plated in a clonogenic assay at a density of 500 cells/well in a 6 well plate, in RPMI+10% FBS. […]

[2] = tested on: BCR-ABL1-positive BRCA1-deficient 32Dc13 murine hematopoietic cell line that expresses GFP-RAD52; experiment: GFP-RAD52 foci formation in response to cisplatin; format: cell-based; conditions: compound 2.5 μM
Protocol: GFP-RAD52 foci formation was measured in BCR-ABL1-positive BRCA1-deficient 32Dc13 murine hematopoietic cell line that expresses GFP-RAD52 (Cramer-Morales et al., 2013, Blood 122, 1293-1304). RAD51 foci formation was measured in parental 32Dc13.
Both cell lines were cultured in IMDM plus 10% FBS. […] After 4 h of incubation, the cells were treated with 3 μg/mL cisplatin for 16 h. Following cisplatin treatment, cytospins were prepared using polylysine coated slides (Thermo Scientific). DNA was counterstained with DAPI. To detect RAD51 foci, cells were stained with an anti-RAD51 antibody (Thermo Scientific), followed by a secondary antibody conjugated with AlexaFluor 594. RAD51 and GFP-RAD52 foci were visualized with an inverted Olympus IX70 fluorescence microscope equipped with a Cooke Sensicam QE camera (The Cooke Co., Auburn Hills, Mich., USA). Images from 25-60 cells/group were processed using SlideBook 3.0 (Intelligent Imaging Innovation).
In response to DNA damage, RAD52 accumulates in the nucleus forming distinct structures known as foci (Essers et al., 2002, EMBO J. 21, 2030-2037; Liu et al., 2000, EMBO Rep 1, 85-90). The foci represent RAD52 complexes with DNA repair intermediates. Inhibitors of RAD52 may decrease RAD52 foci formation by disrupting its interaction with DNA substrates.

salmon sperm DNA = experiment: Acridine orange displacement assay for DNA binding
Protocol: The selected compounds were tested their abilities to bind DNA to rule out DNA binding as an undesired mechanism of action. The compounds in varied concentrations were added into 30 μl reaction mixtures containing 50 nM acridine orange and 6 μg/ml salmon sperm DNA, 10 mM HEPES, pH 7.5; 1 mM EDTA pH 7.5; 100 mM NaCl in 384-well plates, and the reactions were incubated at room temperature for 20 min followed by fluorescence polarization measurement using an EnVision (Perkin Elmer) equipped with a 480 nm excitation filter and 535 nm S and P emission filters with a D505 FP/D535 dichroic mirror. Mitoxantrone (10 μM) was used as a positive control. The S and P values are processed with the standard fluorescence polarization calculation formula (mP=1000*(S-G*P)/(S+G*P) where G is the G-factor and is approximately 1.

Compound: COc1ccc(OC)c(Nc2nc(NCCCO)c3ccccc3n2)c1 [D-G23, 3-((2-((2,5-dimethoxyphenyl)amino)quinazolin-4-yl)amino)propan-1-ol]
- preferential inhibition of BRCA1/2-deficient cell lines (summary) [1]: preferentially inhibited at least two BRCA1/2-deficient cell lines
- fraction of cells with RAD52 foci (>5 foci) ([2]; cisplatin-treated, without inhibitor 38.7±10%): 19±0.4%
- fraction of cisplatin-treated cells without foci ([2]; without inhibitor 48.4±6.2%): 57.6±0.5%
- DNA binding (salmon sperm DNA): did not bind DNA

From patent US10738061B2, “Inhibitors of RAD52 recombination protein and methods using same” (Drexel University, priority 2015, dated 2020)
